Laboratory results as given in patent US8450313B2, “2,3-diaryl- or heteroaryl-substituted 1,1,1-trifluoro-2-hydroxypropyl compounds” (Hoffmann-La Roche Inc., priority 2009, dated 2013).

Target: T1, full length human recombinant glucocorticoid receptor (Homo sapiens, UniProt P04150)
T1 construct: It contains some partially purified full length human recombinant glucocorticoid receptor; purchased Panvera/Invitrogen PV4302
T1 sequence (P04150 1-777): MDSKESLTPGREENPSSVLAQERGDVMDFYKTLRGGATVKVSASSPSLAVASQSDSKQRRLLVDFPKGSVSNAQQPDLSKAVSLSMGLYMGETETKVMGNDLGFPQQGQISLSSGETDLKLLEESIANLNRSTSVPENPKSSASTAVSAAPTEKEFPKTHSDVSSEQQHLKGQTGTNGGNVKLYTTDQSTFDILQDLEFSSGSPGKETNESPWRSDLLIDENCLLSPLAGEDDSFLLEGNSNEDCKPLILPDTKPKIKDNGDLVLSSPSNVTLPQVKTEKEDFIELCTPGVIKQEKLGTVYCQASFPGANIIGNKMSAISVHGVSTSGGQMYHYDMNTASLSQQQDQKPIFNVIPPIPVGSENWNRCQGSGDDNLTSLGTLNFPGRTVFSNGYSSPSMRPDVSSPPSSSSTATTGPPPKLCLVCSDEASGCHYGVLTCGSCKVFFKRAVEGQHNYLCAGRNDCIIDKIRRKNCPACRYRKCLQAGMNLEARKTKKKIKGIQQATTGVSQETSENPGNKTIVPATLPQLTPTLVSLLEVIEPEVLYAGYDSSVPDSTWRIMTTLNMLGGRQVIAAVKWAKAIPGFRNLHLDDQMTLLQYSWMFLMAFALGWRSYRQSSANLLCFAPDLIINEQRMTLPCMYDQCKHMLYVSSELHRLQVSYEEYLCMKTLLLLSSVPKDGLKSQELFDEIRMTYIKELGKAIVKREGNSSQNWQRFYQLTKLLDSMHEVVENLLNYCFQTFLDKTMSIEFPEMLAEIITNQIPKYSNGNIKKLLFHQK
Test: Glucocorticoid Receptor Binding Assay (Glucocorticoid Receptor Competitor Assay far red kit, fluorescence polarization)
Conditions: competition with fluorescent GR ligand Fluormone GS Far Red, 3 hours at 22° C., pH 7.4; Ki calculated from IC50 by Cheng-Prusoff
Method in brief: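 Compounds in serial dilution (from intermediate 4.2% DMSO stock) displace Fluormone GS Far Red from full-length human recombinant GR with stabilizing peptide, pH 7.4, incubated 3 hours at 22° C dark. Polarized fluorescence (610–660 nm) gives IC50 via sigmoidal fit, converted to Ki by Cheng-Prusoff.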

SMILES: C[C@H](c1ccc(Oc2ccc(F)c(C(=O)O)c2)cc1Cl)[C@@](O)(c1ccc2c(c1)OCC(=O)N2C)C(F)(F)F (relative stereo) [Example 167, 5-{3-Chloro-4-[3,3,3-trifluoro-2-hydroxy-1-methyl-2-(4-methyl-3-oxo-3,4-dihydro-2H-benzo[1,4]oxazin-7-yl)-propyl]phenoxy}-2-fluoro-benzoic acid]
- Ki: 3.1 nM

SMILES: C[C@H](c1ccc(Oc2ccc(C(=O)O)c(Cl)c2)cc1Cl)[C@@](O)(c1ccc2c(c1)N(C)C(=O)CO2)C(F)(F)F (racemic) [Example 59, 2-Chloro-4-{3-chloro-4-[3,3,3-trifluoro-2-hydroxy-1-methyl-2-(4-methyl-3-oxo-3,4-dihydro-2H-benzo[1,4]oxazin-6-yl)-propyl]-phenoxy}-benzoic acid]
- Ki: 1 nM

SMILES: COC(=O)c1cnc(Oc2ccc([C@H](C)[C@](O)(c3cc(C)c(C#N)c(C)c3)C(F)(F)F)c(Cl)c2)c(Cl)c1 (stereo in doubt) [Example 149, 5-Chloro-6-{3-chloro-4-[2-(4-cyano-3,5-dimethyl-phenyl)-3,3,3-trifluoro-2-hydroxy-1-methyl-propyl]-phenoxy}-nicotinic acid methyl ester]
- Ki: 1.7 nM

SMILES: C[C@H](c1ccc(Oc2cc(C(=O)O)c(C(F)(F)F)cn2)cc1Cl)[C@@](O)(c1ccc2c(c1)n(C)c(=O)n2C)C(F)(F)F (stereo in doubt) [Example 110, 2-{3-Chloro-4-[2-(1,3-dimethyl-2-oxo-2,3-dihydro-1H-benzoimidazol-5-yl)-3,3,3-trifluoro-2-hydroxy-1-methyl-propyl]-phenoxy}-5-trifluoromethyl-isonicotinic acid]
- Ki: 2.1 nM

SMILES: COC(=O)c1cnc(Oc2ccc([C@H](C)[C@](O)(c3cc(C)c(C#N)c(C)c3)C(F)(F)F)c(Cl)c2)cc1C(F)(F)F (stereo in doubt) [Example 145, 6-{3-Chloro-4-[2-(4-cyano-3,5-dimethyl-phenyl)-3,3,3-trifluoro-2-hydroxy-1-methyl-propyl]phenoxy}-4-trifluoromethyl-nicotinic acid methyl ester]
- Ki: 3.1 nM

SMILES: C[C@@H](c1cc(Oc2ccc(C(=O)O)cc2)ccc1Cl)[C@](O)(c1ccc2c(c1)N(C)C(=O)CO2)C(F)(F)F (relative stereo) [Example 8, 4-{4-Chloro-3-[3,3,3-trifluoro-2-hydroxy-1-methyl-2-(4-methyl-3-oxo-3,4-dihydro-2H-benzo[1,4]oxazin-6-yl)-propyl]-phenoxy}-benzoic acid]
- Ki: 10.8 nM

SMILES: C[C@H](c1ccc(-c2ccc(OCC(=O)O)cc2)cc1Cl)[C@@](O)(c1ccc2oc(=O)n(C)c2c1)C(F)(F)F (stereo in doubt) [Example 130, {3′-Chloro-4′-[3,3,3-trifluoro-2-hydroxy-1-methyl-2-(3-methyl-2-oxo-2,3-dihydro-benzooxazol-5-yl)-propyl]-biphenyl-4-yloxy}-acetic acid]
- Ki: 0.5 nM

SMILES: COC(=O)c1ccc(Oc2ccc([C@H](C)[C@](O)(c3cc(C)c(C#N)c(C)c3)C(F)(F)F)c(Cl)c2)cc1F (relative stereo) [Example 141, 4-{3-Chloro-4-[2-(4-cyano-3,5-dimethyl-phenyl)-3,3,3-trifluoro-2-hydroxy-1-methyl-propyl]-phenoxy}-2-fluoro-benzoic acid methyl ester]
- Ki: 1.8 nM

SMILES: COC(=O)c1cnc(Oc2ccc([C@H](C)[C@](O)(c3ccc4c(c3)N(C)C(=O)CO4)C(F)(F)F)c(Cl)c2)c(Cl)c1 (single isomer, unassigned) [Example 222]
- Ki: 1.6 nM

SMILES: COC(=O)c1cncc(-c2ccc([C@@H](C)[C@@](O)(c3ccc4oc(=O)n(C)c4c3)C(F)(F)F)c(Cl)c2)c1 (relative stereo) [Example 186, 5-{3-Chloro-4-[3,3,3-trifluoro-2-hydroxy-1-methyl-2-(3-methyl-2-oxo-2,3-dihydro-benzooxazol-5-yl)-propyl]-phenyl}-nicotinic acid methyl ester]
- Ki: 1.4 nM

SMILES: COc1cc(-c2ccc([C@H](C)[C@](O)(c3ccc4c(c3)N(C)C(=O)CO4)C(F)(F)F)c(Cl)c2)ccc1C(=O)O (relative stereo) [Example 36, 3′-Chloro-3-methoxy-4′-[3,3,3-trifluoro-2-hydroxy-1-methyl-2-(4-methyl-3-oxo-3,4-dihydro-2H-benzo[1,4]oxazin-6-yl)-propyl]-biphenyl-4-carboxylic acid]
- Ki: 6.5 nM

SMILES: Cc1cc([C@@](O)([C@@H](C)c2ccc(Oc3ncc(C(=O)O)cc3Cl)cc2Cl)C(F)(F)F)cc(C)c1C#N (stereo in doubt) [Example 150, 5-Chloro-6-{3-chloro-4-[2-(4-cyano-3,5-dimethyl-phenyl)-3,3,3-trifluoro-2-hydroxy-1-methyl-propyl]-phenoxy}-nicotinic acid]
- Ki: 1.3 nM

SMILES: C[C@@H](c1ccc(-c2ccc(C(=O)O)c(F)c2)cc1Cl)[C@](O)(c1cc2c(cc1F)OCC(=O)N2C)C(F)(F)F (stereo in doubt) [Example 137, 3′-Chloro-3-fluoro-4′-[3,3,3-trifluoro-2-(7-fluoro-4-methyl-3-oxo-3,4-dihydro-2H-benzo[1,4]oxazin-6-yl)-2-hydroxy-1-methyl-propyl]-biphenyl-4-carboxylic acid]
- Ki: 20 nM

SMILES: C[C@H](c1ccc(Oc2ccc(C(=O)O)cn2)cc1Cl)[C@@](O)(c1ccc2c(c1)OCC(=O)N2C)C(F)(F)F (relative stereo) [Example 169, 6-{3-Chloro-4-[3,3,3-trifluoro-2-hydroxy-1-methyl-2-(4-methyl-3-oxo-3,4-dihydro-2H-benzo[1,4]oxazin-7-yl)-propyl]-phenoxy}-nicotinic acid]
- Ki: 28.2 nM

SMILES: C[C@H](c1ccc(Oc2ncc(C(=O)O)cc2Cl)cc1Cl)[C@@](O)(c1ccc(C#N)cc1)C(F)(F)F (relative stereo) [Example 155, 5-Chloro-6-{3-chloro-4-[2-(4-cyano-phenyl)-3,3,3-trifluoro-2-hydroxy-1-methyl-propyl]-phenoxy}-nicotinic acid]
- Ki: 8.9 nM

SMILES: C[C@H](c1ccc(Oc2cccc(OCC(=O)O)c2)cc1Cl)[C@@](O)(c1ccc2c(c1)n(C)c(=O)n2C)C(F)(F)F (stereo in doubt) [Example 94, (3-{3-Chloro-4-[2-(1,3-dimethyl-2-oxo-2,3-dihydro-1H-benzoimidazol-5-yl)-3,3,3-trifluoro-2-hydroxy-1-methyl-propyl]-phenoxy}-phenoxy)-acetic acid]
- Ki: 0.3 nM

SMILES: C[C@H](c1ccc(Oc2cccc(C(=O)O)c2)cc1Cl)[C@@](O)(c1ccc2c(c1)n(C)c(=O)n2C)C(F)(F)F (relative stereo) [Example 99, 3-{3-Chloro-4-[2-(1,3-dimethyl-2-oxo-2,3-dihydro-1H-benzoimidazol-5-yl)-3,3,3-trifluoro-2-hydroxy-1-methyl-propyl]-phenoxy}-benzoic acid]
- Ki: 1.2 nM

SMILES: C[C@H](c1ccc(Oc2ccc(C(=O)O)c(Cl)n2)cc1Cl)[C@@](O)(c1ccc2c(c1)n(C)c(=O)n2C)C(F)(F)F (stereo in doubt) [Example 92, 2-Chloro-6-{3-chloro-4-[2-(1,3-dimethyl-2-oxo-2,3-dihydro-1H-benzoimidazol-5-yl)-3,3,3-trifluoro-2-hydroxy-1-methyl-propyl]-phenoxy}-nicotinic acid]
- Ki: 0.6 nM

SMILES: C[C@H](c1ccc(-c2ccc(C(=O)O)c(F)c2)cc1Cl)[C@@](O)(c1cccc2c1OCC(=O)N2C)C(F)(F)F (stereo in doubt) [Example 54, 3′-Chloro-3-fluoro-4′-[3,3,3-trifluoro-2-hydroxy-1-methyl-2-(4-methyl-3-oxo-3,4-dihydro-2H-benzo[1,4]oxazin-8-yl)-propyl]-biphenyl-4-carboxylic acid]
- Ki: 281 nM

SMILES: COC(=O)c1ccc(-c2ccc([C@@H](C)[C@@](O)(c3ccc4oc(=O)n(C)c4c3)C(F)(F)F)c(C(F)(F)F)c2)cc1F (relative stereo) [Example 198, 3-Fluoro-4′-[3,3,3-trifluoro-2-hydroxy-1-methyl-2-(3-methyl-2-oxo-2,3-dihydro-benzooxazol-5-yl)-propyl]-3′-trifluoromethyl-biphenyl-4-carboxylic acid methyl ester]
- Ki: 1.7 nM

SMILES: C[C@H](c1ccc(Oc2ncc(C(=O)O)cc2Cl)cc1Cl)[C@@](O)(c1ccc2c(c1)n(C)c(=O)n2C)C(F)(F)F (stereo in doubt) [Example 107, 5-Chloro-6-{3-chloro-4-[2-(1,3-dimethyl-2-oxo-2,3-dihydro-1H-benzoimidazol-5-yl)-3,3,3-trifluoro-2-hydroxy-1-methyl-propyl]-phenoxy}-nicotinic acid]
- Ki: 0.4 nM

SMILES: C[C@H](c1ccc(Oc2ccc(C(=O)O)cc2)cc1Cl)[C@@](O)(c1ccc2c(c1)N(C)C(=O)CO2)C(F)(F)F (racemic) [Example 60, 4-{3-Chloro-4-[3,3,3-trifluoro-2-hydroxy-1-methyl-2-(4-methyl-3-oxo-3,4-dihydro-2H-benzo[1,4]oxazin-6-yl)-propyl]-phenoxy}-benzoic acid]
- Ki: 2.3 nM
